# Key:
# [1] = Terminal fasting serum glucose and lipids in rats with diet-induced obesity (Example 6); type: in vivo, rat; conditions: DIO rats, vs vehicle control
# Protocol: As part of the study described in Example 4, a terminal blood sample (0.5 ml whole blood in EDTA) was collected on day 24, after a 12-18 hour fast. Whole blood was processed to serum, and analyzed for glucose, total cholesterol, HDL cholesterol, free fatty acids and total triglycerides.
# [2] = LC-MS of plasma amino acids and thyroxine in rats (Example 2); type: in vivo, rat; conditions: 7 days
# Protocol: (§1) In an initial experiment, two dose groups of six animals per group received either 5 or 50 mg/kg b.i.d., and a further group received vehicle only, as a control. A follow-up experiment was performed to explore dose-response and the selected doses were 15 and 50 mg/kg b.i.d., again plus control.
# In both experiments, urine was collected from each animal by clean-catch after the final dose on day 7, and cerebrospinal fluid (CSF) and plasma were collected (terminal samples) on day 8. Aliquots of the CSF and plasma samples from each individual were submitted for LC-MS analyses of bioanalytes. Three different separation methods were run, with MS analyses in both positive and negative ion modes, to enable resolution of relative quantification of the bioanalytes.
# [3] = target: T1, rat PPARα (Rattus norvegicus, UniProt P37230); experiment: PPARRE-luciferase reporter in HepG2 cells transfected with rat PPARα; type: cell-based; conditions: retinoic acid 200 nM, read-out: EC50 activation of rat PPARα (rPPARα)
# T1 construct: expressed in transfected cells; host or cells: HepG2
# T1 sequence (P37230 1-468): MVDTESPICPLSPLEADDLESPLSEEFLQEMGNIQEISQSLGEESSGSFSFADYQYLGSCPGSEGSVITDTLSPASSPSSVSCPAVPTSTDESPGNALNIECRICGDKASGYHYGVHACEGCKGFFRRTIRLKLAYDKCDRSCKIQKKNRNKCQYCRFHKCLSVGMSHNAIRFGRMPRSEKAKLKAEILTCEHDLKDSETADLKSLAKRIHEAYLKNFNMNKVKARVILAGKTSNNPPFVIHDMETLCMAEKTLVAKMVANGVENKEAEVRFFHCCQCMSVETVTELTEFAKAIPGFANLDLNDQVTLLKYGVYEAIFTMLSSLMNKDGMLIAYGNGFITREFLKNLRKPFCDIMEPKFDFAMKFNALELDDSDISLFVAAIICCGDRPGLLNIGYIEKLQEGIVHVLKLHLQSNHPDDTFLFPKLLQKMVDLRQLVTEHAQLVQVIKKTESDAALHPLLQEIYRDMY
# Protocol: For this study, a luciferase reporter plasmid containing 5 copies of a defined genetic regulatory PPARα response element (PPARRE) was utilized to detect romazarit-induced PPARRE activation in presence of a co-activator, retinoic acid. Specifically, HepG2 cells were transfected with expression vectors for either human or rat PPARα and the PPARRE-luciferase reporter plasmid. After 24 hours, the cells were trypsanized and subsequently seeded in 96-well clear-bottom plates at a density of 1.0×10^5 cells/ml.
# [4] = Plasma lipids, lipoproteins and liver weight in normal rats versus fibrates (Example 8); type: in vivo, rat; conditions: once daily p.o. 7 days
# Text: The study design was based on the protocols used in Examples 1-3. Male Sprague-Dawley rats were provided normal chow ad libitum, both before and during the study period. […] Six rats were assigned to each treatment group (8 to the vehicle control). The study terminated on the day following administration of the seventh dose (day 8), with terminal blood collected for plasma lipid and lipoprotein analyses including LC-MS-based determination of lipid profiles, total and free cholesterol analyses, and lipoprotein cholesterol determinations (VLDL, LDL and HDL).
# In order to elucidate the impact of romazarit on plasma lipoproteins, an ultraviolet (UV) size exclusion chromatography (SEC) system was used to separate plasma into broad lipoprotein-containing fractions that were based on relative retention times of human VLDL (very low density lipoprotein), LDL (low density lipoprotein), and HDL (high density lipoprotein) standards. These fractions were collected for cholesterol assays and the UV chromatograms were integrated to provide relative quantitation of the three lipoprotein types. It is important to note that since the UV absorbance measurement is not specific for lipoproteins and may also derive from other plasma constituents that co-elute with a particular lipoprotein, the relative quantitation data reported here is an approximation. The HDL fraction in particular may have included such co-eluting species, as evidenced by the relatively high integrated area values for this fraction.
# [5] = Body weight, food consumption and liver weight in diet-induced obese (DIO) rat model (Example 4); type: in vivo; conditions: for liver weight: rat, in vivo, po
# Protocol: Male Sprague-Dawley rats were acclimated for 7 weeks on a high-fat diet before commencement of dose administration, and maintained on the same diet throughout the subsequent dosing period of 23 days. The high-fat diet (D12492 commercially available from Research Diets, Inc., New Brunswick, N.J.) was one in which at least 60% of calories are derived from fat.
# Dose levels of gemfibrozil (50 mg/kg) and sibutramine (10 mg/kg) were selected based on published reports. All treatments were administered once daily by oral gavage in 10 ml vehicle. A vehicle-only control was also administered. Each treatment group consisted of 10 animals.
# Body weight of each animal was measured weekly during the 7-week acclimation period and five times weekly during the 23-day dosing period. Food consumption was recorded twice weekly during the 7-week acclimation period and five times weekly during the 23-day dosing period.
# Animals were sacrificed and liver weights measured at conclusion of the study.
# [6] = Weight gain in rats over seven-day dosing (Example 3); type: in vivo, rat; conditions: 7 days
# Protocol: as §1
# Body weights of individual rats were recorded before and after the seven-day dosing period.
# [7] = 50 mg/kg b.i.d. p.o., second experiment
# [8] = 5 and 50 mg/kg b.i.d. p.o., initial experiment
# [9] = DIO rats, 50 mg/kg once daily p.o.
# [10] = DIO rats, 100 mg/kg once daily p.o.
smiles,measurement,setting,value
"Cc1nc(-c2ccc(Cl)cc2)oc1COC(C)(C)C(=O)O [romazarit, 2-[[2-(4-chlorophenyl)-4-methyl-5-oxazolyl]methoxy]-2-methylpropanoic acid]",terminal (total) cholesterol levels,"[1]; day 24, 15 mg/kg once daily",not statistically significant
same,terminal HDL levels,"[1]; day 24, 15 mg/kg once daily",not statistically significant
same,terminal fasting levels of triglycerides,"[1]; day 24, 15 mg/kg once daily",significant reduction
same,terminal fasting serum glucose,"[1]; day 24, 15 mg/kg once daily",significantly reduced
same,terminal levels of free fatty acids,"[1]; day 24, 15 mg/kg once daily","did not, at any of the tested doses, affect"
same,terminal (total) cholesterol levels,"[1]; day 24, 50 mg/kg once daily",significantly reduced
same,terminal HDL levels,"[1]; day 24, 50 mg/kg once daily",significantly reduced
same,terminal fasting levels of triglycerides,"[1]; day 24, 50 mg/kg once daily",significant reduction
same,terminal fasting serum glucose,"[1]; day 24, 50 mg/kg once daily",significantly reduced
same,terminal levels of free fatty acids,"[1]; day 24, 50 mg/kg once daily","did not, at any of the tested doses, affect"
same,terminal (total) cholesterol levels,"[1]; day 24, 100 mg/kg once daily",significantly reduced
same,terminal HDL levels,"[1]; day 24, 100 mg/kg once daily",significantly reduced
same,terminal fasting levels of triglycerides,"[1]; day 24, 100 mg/kg once daily",did not achieve statistical significance
same,terminal fasting serum glucose,"[1]; day 24, 100 mg/kg once daily",significantly reduced
same,terminal levels of free fatty acids,"[1]; day 24, 100 mg/kg once daily","did not, at any of the tested doses, affect"
same,plasma amino acids,[2]; [7],generally similar to those for the same dose in the initial experiment
same,plasma thyroxine,[2]; [7],generally similar to those for the same dose in the initial experiment
same,levels of common amino acids in plasma,[2]; [8],small but significant lowering
same,plasma thyroxine (T4),[2]; [8],concomitant decrease
same,EC50,[3],~200 µM
same,potency in lowering plasma free fatty acids compared to the other compounds tested,[4]; 50 and 100 mg/kg,superior potency
same,plasma cholesterol esters,[4]; 50 and 100 mg/kg (romazarit also 10 mg/kg),increased at least some fractions of plasma cholesterol esters
same,plasma free fatty acids,"[4]; romazarit 10, 50 and 100 mg/kg",lowered plasma free fatty acids in a dose-dependent manner
same,plasma triglycerides,"[4]; romazarit 10, 50 and 100 mg/kg",significantly lowered
same,food consumption,"[5]; DIO rats, 15 mg/kg once daily p.o., throughout the dosing period",comparable to the vehicle control
same,day by which food consumption returned to levels comparable to the vehicle control,[5]; [9],≤ 15 days
same,day of minimum food consumption,[5]; [9],6 days
same,body weight loss by comparison with the vehicle control,"[5]; DIO rats, 50 mg/kg once daily p.o., day 16",10.3%
same,body weight loss by comparison with the vehicle control,"[5]; DIO rats, 50 mg/kg once daily p.o., day 23",4.6%
same,food consumption,"[5]; DIO rats, 50 mg/kg once daily p.o., first 13 days of the dosing period",significantly less than the vehicle control
same,day by which food consumption returned to levels comparable to the vehicle control,[5]; [10],≤ 15 days
same,day of minimum food consumption,[5]; [10],8 days
same,body weight loss by comparison with the vehicle control (maximum),"[5]; DIO rats, 100 mg/kg once daily p.o., day 16",16%
same,body weight loss by comparison with the vehicle control,"[5]; DIO rats, 100 mg/kg once daily p.o., end of study (day 23)",13.3%
same,food consumption,"[5]; DIO rats, 100 mg/kg once daily p.o., first 13 days of the dosing period",significantly less than the vehicle control
same,liver weight,[5]; 15 mg/kg,No increase in liver weight
same,liver weight,[5]; 50 mg/kg,Increased liver weight
same,liver weight,[5]; 100 mg/kg,Increased liver weight
same,weight gain,"[6]; 15 mg/kg b.i.d. p.o., second experiment",generally similar to that seen in the initial experiment with the 5 mg/kg dose
same,weight gain,"[6]; 50 mg/kg b.i.d. p.o., initial experiment",dramatic inhibition of weight gain
same,weight gain,[6]; [7],"not only inhibited weight gain, but even resulted in weight loss"

# Reference: patent US20100105746A1, “METHOD FOR TREATING METABOLIC DISEASES” (priority 2008, published 2010)
